Test results published in PubChem BioAssay (NCI).
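How tested: cells in 96-well plates exposed to compound for 48 hours at five concentrations. GI50 is the concentration that inhibits growth by half. TGI marks complete inhibition of growth.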

Key:
Assay in all cases: NCI anticancer screen, dose series, 48 h
[1] = system: RPMI-8226 leukemia
[2] = system: TK-10 renal
[3] = system: HCT-15 colon
[4] = system: DLD-1 colon
[5] = system: UO-31 renal
[6] = system: SK-MEL-5 melanoma
[7] = system: UACC-257 melanoma
[8] = system: NCI-H226 lung
[9] = system: 786-0 renal
[10] = system: OVCAR-4 ovarian
[11] = system: HT29 colon
[12] = system: LXFL 529 NSCLC
[13] = system: RXF-631 renal
[14] = system: SW-620 colon
[15] = system: HOP-92 NSCLC
[16] = system: NCI-H460 lung
[17] = system: OVCAR-3 ovarian
[18] = system: ACHN renal
[19] = system: HOP-18 NSCLC
[20] = system: M14 melanoma
[21] = system: CAKI-1 renal
[22] = system: SF-539 CNS
[23] = system: LOX IMVI melanoma
[24] = system: SR leukemia
[25] = system: KM12 colon
[26] = system: MALME-3M melanoma
[27] = system: RXF 393 renal
[28] = system: HCT-116 colon
[29] = system: OVCAR-5 ovarian
[30] = system: U251 CNS
[31] = system: A549 NSCLC
[32] = system: EKVX NSCLC
[33] = system: SN12C renal
[34] = system: SK-MEL-2 melanoma
[35] = system: UACC-62 melanoma
[36] = system: SF-268 CNS
[37] = system: HOP-62 NSCLC
[38] = system: MOLT-4 leukemia
[39] = system: KM20L2 colon
[40] = system: K-562 leukemia
[41] = system: SF-295 CNS
[42] = system: HCC-2998 colon
[43] = system: M19-MEL melanoma
[44] = system: XF 498 CNS
[45] = system: SNB-75 CNS
[46] = system: CCRF-CEM leukemia
[47] = system: OVCAR-8 ovarian
[48] = system: NCI-H522 lung
[49] = system: HL-60(TB) leukemia
[50] = system: DMS 273 small cell lung
[51] = system: SK-OV-3 ovarian
[52] = system: SNB-78 CNS
[53] = system: COLO 205 colon
[54] = system: SK-MEL-28 melanoma
[55] = system: SNB-19 CNS
[56] = system: NCI-H23 lung
[57] = system: IGROV1 ovarian
[58] = system: DMS 114 small cell lung
[59] = system: A498 renal

## C=CCC[CH2][Sn]([c]1ccccc1)([c]1ccccc1)[c]1ccccc1
[1]
  GI50: 1.65 µM
  TGI: 4.37 µM
[2]
  GI50: 1.6 µM
  TGI: 3.09 µM
[3]
  GI50: 1.52 µM
  TGI: 3.07 µM
[4]
  GI50: 1.51 µM
  TGI: 2.98 µM
[5]
  GI50: 1.89 µM
  TGI: 3.36 µM
[6]
  GI50: 1.65 µM
  TGI: 3.02 µM
[7]
  GI50: 1.87 µM
  TGI: 3.33 µM
[8]
  GI50: 1.74 µM
  TGI: 3.33 µM
[9]
  GI50: 1.54 µM
  TGI: 2.87 µM
[10]
  GI50: 1.48 µM
  TGI: 2.86 µM
[11]
  GI50: 2.25 µM
  TGI: 4.73 µM
[12]
  GI50: 1.35 µM
  TGI: 2.63 µM
[13]
  GI50: 1.85 µM
  TGI: 3.53 µM
[14]
  GI50: 0.856 µM
  TGI: 2.12 µM
[15]
  GI50: 1.78 µM
  TGI: 3.38 µM
[16]
  GI50: 1.61 µM
  TGI: 3.06 µM
[17]
  GI50: 1.54 µM
  TGI: 2.91 µM
[18]
  GI50: 1.66 µM
  TGI: 3.07 µM
[19]
  GI50: 2.59 µM
  TGI: 4.51 µM
[20]
  GI50: 1.62 µM
  TGI: 3.09 µM
[21]
  GI50: 1.52 µM
  TGI: 3.18 µM
[22]
  GI50: 1.94 µM
  TGI: 3.52 µM
[23]
  GI50: 1.16 µM
  TGI: 2.38 µM
[24]
  GI50: 0.572 µM
  TGI: 5.28 µM
[25]
  GI50: 1.31 µM
  TGI: 2.58 µM
[26]
  GI50: 1.56 µM
  TGI: 3.05 µM
[27]
  GI50: 1.34 µM
  TGI: 2.66 µM
[28]
  GI50: 0.977 µM
  TGI: 2.15 µM
[29]
  GI50: 1.12 µM
  TGI: 2.35 µM
[30]
  GI50: 1.65 µM
  TGI: 3.01 µM
[31]
  GI50: 1.71 µM
  TGI: 3.54 µM
[32]
  GI50: 1.89 µM
  TGI: 3.97 µM
[33]
  GI50: 1.57 µM
  TGI: 2.95 µM
[34]
  GI50: 1.76 µM
  TGI: 3.2 µM
[35]
  GI50: 1.11 µM
  TGI: 2.36 µM
[36]
  GI50: 1.26 µM
  TGI: 2.71 µM
[37]
  GI50: 2.25 µM
  TGI: 3.99 µM
[38]
  GI50: 1.26 µM
  TGI: 5.27 µM
[39]
  GI50: 1.83 µM
  TGI: 3.36 µM
[40]
  GI50: 2.15 µM
  TGI: 16.5 µM
[41]
  GI50: 1.99 µM
  TGI: 3.6 µM
[42]
  GI50: 1.69 µM
  TGI: 3.11 µM
[43]
  GI50: 2.17 µM
  TGI: 4.49 µM
[44]
  GI50: 2.08 µM
  TGI: 3.55 µM
[45]
  GI50: 2.49 µM
  TGI: 6.88 µM
[46]
  GI50: 1.01 µM
  TGI: 4.37 µM
[47]
  GI50: 1.78 µM
  TGI: 3.28 µM
[48]
  GI50: 1.19 µM
  TGI: 2.49 µM
[49]
  GI50: 5.29 µM
  TGI: > 100 µM
[50]
  GI50: 1.58 µM
  TGI: 3.03 µM
[51]
  GI50: 1.89 µM
  TGI: 3.57 µM
[52]
  GI50: 1.73 µM
  TGI: 4.83 µM
[53]
  GI50: 1.64 µM
  TGI: 3 µM
[54]
  GI50: 1.84 µM
  TGI: 3.47 µM
[55]
  GI50: 1.73 µM
  TGI: 3.31 µM
[56]
  GI50: 1.64 µM
  TGI: 3.01 µM
[57]
  GI50: 1.77 µM
  TGI: 3.35 µM

## CCOc1ccc(NC(=O)C(=O)CC(=O)C2=C(C)Nc3ccccc3S2)cc1
[1]
  TGI: > 50 µM
[2]
  TGI: > 50 µM
[3]
  TGI: > 50 µM
[4]
  TGI: > 50 µM
[5]
  TGI: > 50 µM
[6]
  TGI: > 50 µM
[7]
  TGI: > 50 µM
[8]
  TGI: > 50 µM
[9]
  TGI: > 50 µM
[10]
  TGI: > 50 µM
[58]
  TGI: > 50 µM
[11]
  TGI: > 50 µM
[59]
  TGI: > 50 µM
[13]
  TGI: > 50 µM
[14]
  TGI: > 50 µM
[15]
  TGI: > 50 µM
[16]
  TGI: > 50 µM
[17]
  TGI: > 50 µM
[18]
  TGI: > 50 µM
[19]
  TGI: > 50 µM
[20]
  TGI: > 50 µM
[21]
  TGI: > 50 µM
[22]
  TGI: > 50 µM
[23]
  TGI: > 50 µM
[25]
  TGI: > 50 µM
[26]
  TGI: > 50 µM
[27]
  TGI: > 50 µM
[28]
  TGI: > 50 µM
[29]
  TGI: > 50 µM
[30]
  TGI: > 50 µM
[31]
  TGI: > 50 µM
[32]
  TGI: > 50 µM
[33]
  TGI: > 50 µM
[34]
  TGI: > 50 µM
[35]
  TGI: > 50 µM
[36]
  TGI: > 50 µM
[37]
  TGI: > 50 µM
[38]
  TGI: > 50 µM
[39]
  TGI: > 50 µM
[40]
  TGI: > 50 µM
[41]
  TGI: > 50 µM
[42]
  TGI: > 50 µM
[43]
  TGI: > 50 µM
[44]
  TGI: > 50 µM
[46]
  TGI: > 50 µM
[47]
  TGI: > 50 µM
[48]
  TGI: > 50 µM
[51]
  TGI: > 50 µM
[53]
  TGI: > 50 µM
[54]
  TGI: > 50 µM
[55]
  TGI: > 50 µM
[56]
  TGI: > 50 µM
[57]
  TGI: > 50 µM
